Experimental data published in US8609381B2, “Methods to control bacterial growth in fermentation processes” (Dow Brasil Sudeste Industrial Ltda., priority 2007, dated 2013).

Tests used:
bacteria = experiment: Effect of biocide on bacteria level (PCA medium plate count); assay type: cell-based; conditions: biocide concentration 50 ppm, 2 hours after contact
Excerpt: (§1) SDA medium is synthetic defined agar, and PCA medium is plate count agar. Dow Antimicrobial™ 7287 is a composition containing 20 percent 2,2-dibromo-3-nitrilopropionamide (DBNPA), sold by The Dow Chemical Company.

yeast = experiment: Effect of biocide on yeast level (SDA medium plate count); assay type: cell-based; conditions: biocide concentration 50 ppm, 2 hours after contact
Excerpt: as §1

Molecule | Bacteria level (bacteria) | Yeast level (yeast)
O=CCCCC=O [UCARCIDE ™ 250, glutaraldehyde] | 5.0 × 10^5 cfu/ml | 5.0 × 10^4 cfu/ml
Diethyl Carbamate | 2.6 × 10^7 cfu/ml | <1.0 × 10^4 cfu/ml
